One assay deals with NF-κB p65. The assay is described as follows: NF-κB p65 nuclear translocation in NSC-34 immortalized motoneurons, immunoblot. The format is cell-based. Conditions: NSC-34 cells, 24 h. As for the experimental part: (§1) FIGS. 4A-4F. SYN1 and SYN2 increase the expression and activity of NF-κB target genes, such as MnSOD in neurons. […] A commercially available kit, modified to detect MnSOD activity in primary neurons, was used. Neurons were exposed to 3 mM SYN1 or 300 nM SYN2 for 24 h. […] TNF-α was included as a reference. FIGS. 4B, 4D and 4F show SYN1 and SYN2 increase MnSOD protein expression. Mature primary neurons (FIG. 4B), SH-SY5Y cells (FIG. 4D), and NSC-34 cells (FIG. 4F) were treated for 24 h with the compounds. Thereafter, cells were lysed, and proteins were extracted and subjected to SDS-PAGE. Immunoblots were then performed following the instructions of the antibody manufacturer. ECL was used for detection. […] The effect of TNF exposure is provided for reference. […] Primary cortical neurons at 6 D.I.V. were pretreated for 24 h with compounds and then challenged with 80 μM of H2O2. […] SYN1 at 3 μM inhibited cell death by 100%. […] The protection exceeded 60% and extended up to a concentration of 1 μM. […] NSC-34 cells were treated for 24 h with the compounds. Thereafter, cells were lysed, and cytosolic and nuclear fractions were separated. Subsequently, SDS-PAGE and immunoblots were performed. ECL was used for detection. […] The effect of TNF exposure was provided for reference. […] ANOVA+Bonferroni's.
On the technique in general: In western blotting, separated proteins are transferred to a membrane and probed.

In assay [1] the test system is MnSOD. The assay is described as follows: MnSOD activity in primary neurons (modified commercial kit). Type of assay: cell-based. Particulars: 3 mM SYN1 or 300 nM SYN2 for 24 h. How it is done: as §1
Assay [2] deals with MnSOD. The assay is described as follows: MnSOD protein expression by immunoblot in neurons. The format is cell-based. Particulars: 24 h; for MnSOD expression by Western blot: NSC-34 cells; for MnSOD protein expression: mature primary neurons, SH-SY5Y cells and NSC-34 cells. As for the experimental part:
as §1

The subject of a further assay is HSP-dependent mRNAs. The assay is described as follows: Cytoplasmic chaperone expression by qPCR in SH-5YSY. The format is cell-based. Conditions: 24 h treatment. As for the experimental part: (§2) FIG. 5. Effect of SYN1 on cytoplasmic chaperones expression. The expression of the genes listed in the graph was assessed using qPCR in SH-5YSY after 24 h treatment with SYN1.
In general terms: Real-time PCR tracks product formation cycle by cycle.

A further assay has as its system HSP27. The description is as above. The format is cell-based. Particulars: 24 h treatment. As for the experimental part: as §2
The test system of another assay is HSP70-2. The description is as above. Type of assay: cell-based. Particulars: 24 h treatment. How it is done:
as §2

Another assay deals with SOD-1-G93A ALS mouse. The assay is described as follows: SOD-1-G93A ALS mouse: survival, weight, neurologic score. The format is in vivo. Particulars: for survival (Kaplan-Meier analysis): administration at the time of onset; for body weight lost / inhibition of body weight loss: at 120 days; for inhibition of body weight loss: versus control animals; for lifespan extension at 50% survival: male mice, 25 mg/kg IP daily from day 96. How it is done: FIGS. 6A-6D. Effect of SYN1 and SYN2 in SOD-1-G93A ALS mouse. The animals were received at day 70 and kept until day 96, at which time daily IP treatment was started with 25 mg/kg of the compounds. Weight and standard neurologic scores (N.S.) were assessed on alternate days. A N.S. of 4 triggered the exception (euthanized accordingly to humane practices). […] Data in FIGS. 6A and 6B document a 66% and an 81% lifespan extension for SYN1 and SYN2, respectively, at 50% survival in male mice. […] The average weight within the groups before the treatment was similar (inset to FIG. 6C). However, at 120 days, control animals lost on average 12% of the body weight (FIG. 6C). […] Although progression from N.S. 0 to 1 was delayed only by SYN1 (2 day delay, +30%), progression to higher N.S. was delayed by both agents (FIG. 6D). […] Control animals reached N.S.=2 at 30 days on average; treated animals reached N.S.=2 at day 46 or later on average. *P<0.05; **P<0.01.

A further assay relates to Primary cortical neurons. Nature of the assay: Neurotoxicity induced by H2O2 in primary cortical neurons. The format is cell-based. Particulars: 24 h pretreatment, 80 μM H2O2. As for the experimental part: as §1

For `O=C(/C=C/Nc1ccccc1Br)c1ccc2c(c1)OCO2` [SYN1], in the assay with NF-κB p65, the p65 nuclear presence entry was “increased p65 nuclear presence”. In addition, the MnSOD activity entry with MnSOD [1] is “significantly increased”. Further, in the assay with MnSOD [2], the “MnSOD expression by Western blot” value is reported as “increased expression of MnSOD” and the MnSOD protein expression entry was “increased MnSOD expression in all three kinds of neurons”. The “HSP-dependent mRNAs” value with HSP-dependent mRNAs is “significantly increased”. Moreover, the HSP27 gene expression result in the assay on HSP27 is listed as “significantly up-regulated”. In the assay on HSP70-2, the HSP70-2 gene expression result was “significantly up-regulated”. In the assay with SOD-1-G93A ALS mouse (25 mg/kg IP daily), the “delay of progression from N.S. 0 to 1” value came to 2 days; the “delay of progression from N.S. 0 to 1, relative” value was determined as 30%; the “time spent at N.S.1” value is “increased the time spent at N.S.1”; the “survival (Kaplan-Meier analysis)” value was “significantly extended survival”. For the same molecule, in the assay with SOD-1-G93A ALS mouse (25 mg/kg IP daily), the body weight lost is 3%. Further, in the assay with SOD-1-G93A ALS mouse, the “inhibition of body weight loss” value came out at 75% and the “lifespan extension at 50% survival” value turned out to be 66%. Besides, the “inhibition of cell death” value in the assay on Primary cortical neurons (3 μM) is 100%.
With `Cc1cccnc1Nc1nc(-c2ccccn2)cs1` [SYN2], the p65 nuclear presence entry with NF-κB p65 is recorded as “increased p65 nuclear presence”. In the assay with MnSOD [1], the MnSOD activity entry is listed as “significantly increased”. In addition, in the assay with MnSOD [2], the “MnSOD expression by Western blot” value was “increased expression of MnSOD” and the MnSOD protein expression result is on record as “increased MnSOD expression in all three kinds of neurons”. Also, in the assay on SOD-1-G93A ALS mouse (25 mg/kg IP daily), the “time spent at N.S.1” value is “increased the time spent at N.S.1”, the “survival (Kaplan-Meier analysis)” value was “significantly extended survival” and the body weight lost is on record as 4%. Moreover, in the assay on SOD-1-G93A ALS mouse, the “inhibition of body weight loss” value worked out at 65% and the “lifespan extension at 50% survival” value amounted to 81%. Further, in the assay with Primary cortical neurons, the “concentration of peak effect” value amounted to 300 nM, the “concentration up to which protection extended” value was at most 1 µM and the protection result is recorded as “exceeded 60%”.

Source of the values: patent US10808247B2, “Methods for treating neurological disorders using a synergistic small molecule and nucleic acids therapeutic approach” (Phio Pharmaceuticals Corp., priority 2015, dated 2020).
